This passage reports ghrelin release results from patent US20060252048A1, “Method for testing ghrelin release” (priority 2003, published 2006).

Where no end group is shown, it is not given here. The star is where a group is joined. SO3H = O=S(=O)(O)*

The subject of this test is RF-48 cells. Put plainly: ghrelin release from RF-48 cells measured by enzyme immunoassay. The test is classed as cell-based, human. Particulars: 1 hour incubation with test compound, supernatant measured with EIA kit, compared with control and control+vehicle (FIG. 1). As to the method: These test compounds were made as 100× stock solutions by dissolving them in pure ethanol, as a vehicle. The test compounds were then diluted 1/100 in the Leibovitz L-15 medium containing 0.5% foetal bovine serum (FBS).
Since the effect caused by these test compounds on ghrelin release by a RF-48 cell line was tested, RF-48 cells were grown during incubation at 37° C. in Leibovitz's L15 medium with 2 mM L-glutamine and containing 10% (vol/vol) FBS in the absence of CO2.
After cell confluence was obtained, the cells were plated in 24-well cultures plates (1×10^5 cells/well). Several wells were subsequently exposed to one of the test compounds as prepared above. For each type and concentration of test compound tested, a series of three tests was carried out.
After 1 hour of incubation of the thus-filled wells containing both the cells and the test compound at the same conditions as those applied during growing of the RF-48 cells, a sample was taken from each well to measure ghrelin release.
Each sample was centrifuged at 3000 rpm to remove the cells from the sample and the supernatant (containing the ghrelin formed as well as the medium and the test compound) was transferred to a separate tube. The ghrelin release was measured using a commercial enzyme immunoassay kit (from Phoenix Pharmaceuticals, Belmont, Calif., USA). […]

Consider “Tyr(SO3H]27)Cholecystokinin fragment 26-33 Amide (DY(SO3H)MGWMDF-NH2; UniProt P06307 96-103, looked up) [CCK]”, for which the ghrelin release result is on record as “stimulate the release of ghrelin”.
